Measured values from article PMC7504466, “In-Vitro and In-Silico Evaluations of Heterocyclic-Containing Diarylpentanoids as Bcl-2 Inhibitors Against LoVo Colorectal Cancer Cells” (Molecules, 2020).

How the values were obtained:
[1] = system: RKO cells; experiment: MTT cytotoxicity assay, RKO cells; format: cell-based; details: Homo sapiens, 72 h post-treatment, read-out: IC50 (µM) BRAF RKO
Method: (§1) The in-vitro cytotoxic activity of the synthesized compounds on seven human CRC cell lines including KRAS (T84, SW620, LoVo) and BRAF (HT29, NCI-H508, RKO and LS411N) mutated cells were determined by MTT assay as previously described. The IC50 values obtained are summarized in Table 2 in which 5-FU and normal human dermal fibroblasts (NHDF) were used as controls. Meanwhile, a heatmap (Figure 3) was also generated using GraphPad Prism v7.0 (GraphPad Software, La Jolla, CA, USA) to visualize the cytotoxic trends of synthesized compounds graphically.
(§2) A panel of KRAS (T84, SW620 and LoVo) and BRAF (HT29, NCI-H508, RKO and LS411N) mutated human CRC cell lines were grown in Dulbecco’s modified Eagle’s medium (DMEM) containing 10% fetal bovine serum (FBS) and 1% penicillin/streptomycin at 37 °C under 5% CO2 while NHDF cells were cultured in DMEM with 5% FBS under the same condition. The culture medium was replenished every two days until the cells reached 80–90% confluency for further usage. All cell lines (T84, ATCC®CCL-248™; SW620, ATCC®CCL-227™; LoVo, ATCC®CCL-229™; HT-29, ATCC®HTB-38; NCI-H508, ATCC®CCL-253™; RKO, ATCC®CRL-2577; LS411N, ATCC®CRL-2159; NHDF, ATCC® PCS-201-010™) were purchased from American Type culture Collections (ATCC, Manassas, VA, USA).
(§3) LoVo cells (1.5–5 × 10^3 cells/well) were seeded into a 96 well plate and incubated at 37 °C and 5% CO2 atmosphere for 24 h. On the following day, the cell media were replaced with 100 µL of test compounds at various concentration. The final concentration of DMSO in the well is 0.1%. After 72 h of incubation, culture medium was removed and 100 µL of MTT (thiazoyl blue tertrazolium bromide) solution (0.5 mg/mL in culture media) was added. The resultant plates were then further incubated at 37 °C for 4 h. Upon completion, the MTT solution was removed and the formazan salts formed were dissolved in 100 µL of DMSO. The absorbance was recorded with a microplate reader at 570 nm. The IC50 values of tested compounds were calculated from three independent experiments.

[2] = system: SW620 cells; experiment: MTT cytotoxicity assay, SW620 cells; format: cell-based; details: Homo sapiens, SW-620, 72 h post-treatment, read-out: IC50 (µM) KRAS SW620
Method: as §1, §2, §3

[3] = system: HT29 cells; experiment: MTT cytotoxicity assay, HT29 cells; format: cell-based; details: Homo sapiens, HT-29, 72 h post-treatment, read-out: IC50 (µM) BRAF HT29
Method: as §1, §2, §3

[4] = system: normal human dermal fibroblasts (NHDF); experiment: MTT cytotoxicity assay, normal human dermal fibroblasts; format: cell-based; details: 72 h post-treatment
Method: as §1, §2, §3

[5] = system: T84 cells; experiment: MTT cytotoxicity assay, T84 cells; format: cell-based; details: Homo sapiens, 72 h post-treatment, read-out: IC50 (µM) KRAS T84
Method: as §1, §2, §3

[6] = system: LoVo cells; experiment: MTT cytotoxicity assay, LoVo cells; format: cell-based; details: Homo sapiens, 72 h post-treatment, read-out: IC50 (µM) KRAS LoVo
Method: as §1, §2, §3

[7] = system: LS411N cells; experiment: MTT cytotoxicity assay, LS411N cells; format: cell-based; details: Homo sapiens, LS-411N, 72 h post-treatment, read-out: IC50 (µM) BRAF LS411N
Method: as §1, §2, §3

[8] = system: NCI-H508 cells; experiment: MTT cytotoxicity assay, NCI-H508 cells; format: cell-based; details: Homo sapiens, 72 h post-treatment, read-out: IC50 (µM) BRAF NCI-H508
Method: as §1, §2, §3

[9] = system: human CRC cell lines (T84, SW620, LoVo, HT29, NCI-H508, RKO, LS411N); experiment: MTT cytotoxicity assay, panel of KRAS- and BRAF-mutated CRC cell lines; format: cell-based; details: several CRC cell lines, read-out: IC50 against several CRC cell lines
Method: as §1
A panel of KRAS (T84, SW620 and LoVo) and BRAF (HT29, NCI-H508, RKO and LS411N) mutated human CRC cell lines were grown in Dulbecco’s modified Eagle’s medium (DMEM) containing 10% fetal bovine serum (FBS) and 1% penicillin/streptomycin at 37 °C under 5% CO2 while NHDF cells were cultured in DMEM with 5% FBS under the same condition. The culture medium was replenished every two days until the cells reached 80–90% confluency for further usage. […]
LoVo cells (1.5–5 × 10^3 cells/well) were seeded into a 96 well plate and incubated at 37 °C and 5% CO2 atmosphere for 24 h. […] The absorbance was recorded with a microplate reader at 570 nm. The IC50 values of tested compounds were calculated from three independent experiments.

| SMILES | IC50 [1] [µM] | IC50 [2] [µM] | IC50 [3] [µM] | IC50 [4] [µM] | IC50 [5] [µM] | IC50 [6] [µM] | IC50 [7] [µM] | IC50 [8] [µM] | melting point [°C] | IC50 [9] [µM] |
| --- | --- | --- | --- | --- | --- | --- | --- | --- | --- | --- |
| COc1ccccc1C=C1CCCC(=Cc2ccccc2OC)C1=O [Compound 2a, 2,6-Bis(2-methoxybenzylidene)cyclohexanone] | > 10 | > 10 | > 10 | > 20 | > 10 | > 10 | > 10 | > 10 | – | – |
| O=C1C(=Cc2ccccc2Br)CCCC1=Cc1ccccc1Br [Compound 2b, 2,6-Bis(2-bromobenzylidene)cyclohexanone] | > 10 | 8.9 | > 10 | > 20 | > 10 | > 10 | > 10 | 7.8 | – | – |
| O=C1C(=Cc2ccc(F)c(F)c2)CCCC1=Cc1ccc(F)c(F)c1 [Compound 2c, 2,6-Bis(3,4-difluorobenzylidene)cyclohexanone] | 2.6 | 3.2 | 5.4 | 12.9 | 3.3 | 3.3 | 3.7 | 3.3 | 90 to 91 | – |
| COc1ccccc1C=C1CSCC(=Cc2ccccc2OC)C1=O [Compound 2d, 3,5-Bis(2-methoxybenzylidene)tetrahydro-4H-thiopyran-4-one] | 7.1 | > 10 | > 10 | 9.7 | > 10 | 6.9 | 5.8 | 5.3 | 120 to 121 | – |
| O=C1C(=Cc2ccc(F)c(F)c2)CSCC1=Cc1ccc(F)c(F)c1 [Compound 2f, 3,5-Bis(3,4-difluorobenzylidene)tetrahydro-4H-thiopyran-4-one] | 2.4 | 2.9 | > 10 | 2 | > 10 | 5.1 | 5.9 | 6.2 | – | 2.4 to 6.2 |
| O=c1[nH]cc(F)c(=O)[nH]1 [Compound 5-FU, 5-fluorouracil, reference compound] | 2.9 | > 10 | > 10 | > 20 | > 10 | 3.3 | 4.6 | 8.6 | – | – |
